Measurements as given in patent US9763941B2, “Method of treating melanoma by administration of pharmaceutical formulations of (S)-methyl (1-((4-(3-(5-chloro-2-fluoro-3-(methylsulfonamido)phenyl)-1-isopropyl-1H-pyrazol-4-yl)pyrimidin-2-yl)amino)propan-2-yl)carbamate” (Array BioPharma, Inc., priority 2011, dated 2017).
“Also recorded” adds a separate entry of the source.

Experiment: aqueous solubility characteristics / BCS classification
Format: physicochemical
Description: Upon emptying from the stomach, COMPOUND A has the tendency to quickly precipitate out of solution due to an abrupt solubility drop in intestinal pH. […] The present invention relates to orally bioavailable pharmaceutical solid dispersion formulations of COMPOUND A.
Therapeutic compounds with such solubility characteristics typically present pharmaceutical formulation scientists with a challenge while attempting to prepare oral formulations capable of improving oral bioavailability of the therapeutic compound. Such challenges in preparing solid oral dosage forms of COMPOUND A are overcome, according to the present invention, by formulating the compound as a solid dispersion.

## COC(=O)N[C@@H](C)CNc1nccc(-c2cn(C(C)C)nc2-c2cc(Cl)cc(NS(C)(=O)=O)c2F)n1 [COMPOUND A, (S)-methyl (1-((4-(3-(5-chloro-2-fluoro-3-(methylsulfonamido)phenyl)-1-isopropyl-1H-pyrazol-4-yl)pyrimidin-2-yl)amino)propan-2-yl)carbamate]
  BCS class: BCS class II
Low pH
  solubility at low pH: higher solubility; also recorded: highly soluble
Weakly acidic and neutral pH
  aqueous solubility at weakly acidic and neutral pH: limited solubility; also recorded: poor aqueous solubility
